This is an account of results in article PMC3282769 (PLoS ONE, 2012).

For test [1], the target named is T1, OTC (ornithine transcarbamylase) (Enterococcus faecalis, UniProt Q839Q5).
T1 construct: gene arcB
T1 sequence (Q839Q5 1-339): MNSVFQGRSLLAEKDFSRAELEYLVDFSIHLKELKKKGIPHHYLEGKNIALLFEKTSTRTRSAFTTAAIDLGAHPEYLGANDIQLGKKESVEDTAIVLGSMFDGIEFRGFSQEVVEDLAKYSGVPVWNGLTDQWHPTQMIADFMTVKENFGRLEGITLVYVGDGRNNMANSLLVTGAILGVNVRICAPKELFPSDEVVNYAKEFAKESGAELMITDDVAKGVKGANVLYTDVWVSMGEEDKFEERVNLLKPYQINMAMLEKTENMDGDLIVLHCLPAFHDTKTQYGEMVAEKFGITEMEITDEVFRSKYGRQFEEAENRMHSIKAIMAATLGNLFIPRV
As to the kind of experiment: citrulline production, approach to equilibrium; turnover only. Format: biochemical. The note with it: 10 mM ornithine, 10 mM carbamylphosphate, 0.1 M Tris-HCl pH 8.5, 37°C.

For test [2], the target named is T2, truncated PTC (PTC lacking the C-terminal helix 13) (Enterococcus faecalis, UniProt Q837U7).
T2 construct: gene ptcA
Description: X-ray crystal structure, […] Å. The conditions noted are these: bisubstrate analogue in active site; pH 7.5. Format: binding.

Test [3] addresses T3, PTC (putrescine transcarbamylase) (Enterococcus faecalis, UniProt Q837U7).
T3 construct: gene ptcA
Description: X-ray crystal structure, […] Å. It is filed as binding. The note with it: bisubstrate analogue in active site; pH 5.5.

The target in test [4] is T3, PTC (putrescine transcarbamylase). Description: X-ray crystal structure, […] Å. Format: binding. The conditions noted are these: bisubstrate analogue in active site; pH 5.5. The source holds these as a separate data set.
Test [5] shares this target. As to the kind of experiment: inhibition of transcarbamylase activity, PAPU titration. It is filed as biochemical. The conditions noted are these: putrescine or ornithine as substrate (one common curve); bisubstrate analogue inhibitor.

T3 sequence (Q837U7 whole entry): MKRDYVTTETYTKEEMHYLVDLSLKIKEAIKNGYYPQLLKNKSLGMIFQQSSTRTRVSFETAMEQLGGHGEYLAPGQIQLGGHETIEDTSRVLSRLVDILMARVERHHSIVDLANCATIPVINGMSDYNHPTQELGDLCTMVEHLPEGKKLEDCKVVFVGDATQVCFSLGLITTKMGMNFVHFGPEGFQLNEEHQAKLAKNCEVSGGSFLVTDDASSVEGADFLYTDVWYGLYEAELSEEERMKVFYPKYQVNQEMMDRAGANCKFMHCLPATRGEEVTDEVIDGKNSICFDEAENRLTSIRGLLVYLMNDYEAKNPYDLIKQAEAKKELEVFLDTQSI
T2 sequence (Q837U7 1-317): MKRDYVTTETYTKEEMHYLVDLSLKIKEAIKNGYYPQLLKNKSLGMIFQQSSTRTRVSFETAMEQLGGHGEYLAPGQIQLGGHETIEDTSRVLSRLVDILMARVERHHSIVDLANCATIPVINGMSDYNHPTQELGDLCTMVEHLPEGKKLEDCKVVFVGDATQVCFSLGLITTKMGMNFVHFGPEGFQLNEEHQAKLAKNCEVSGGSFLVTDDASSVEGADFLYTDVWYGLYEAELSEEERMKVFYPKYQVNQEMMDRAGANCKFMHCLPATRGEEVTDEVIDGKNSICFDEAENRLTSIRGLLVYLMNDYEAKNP

Consider `NCCC[C@H](N)C(=O)O` [L-ornithine], for which the “citrulline production, approach to equilibrium; turnover only” value in test [1] was “carbamylation of ornithine (open symbols) using either OTC (squares) or PTC (triangles)”. As to `N[C@@H](CCCNC(=O)CP(=O)(O)O)C(=O)O` [PALO, δ-N-(phosphonoacetyl)-L-ornithine], the “X-ray crystal structure, 1.59 Å” value in test [2] is 4A8H, 4A8P and 4A8T for PTC-PAPU, PTC-PALO and truncated PTC-PALO, respectively. Also, in test [3], the “X-ray crystal structure, 2.0 Å” value is 4A8H, 4A8P and 4A8T for PTC-PAPU, PTC-PALO and truncated PTC-PALO, respectively. For `NCCCCNC(=O)CP(=O)(O)O` [PAPU, N-(phosphonoacetyl)-putrescine], the “X-ray crystal structure, 2.5 Å” value in test [4] was 4A8H, 4A8P and 4A8T for PTC-PAPU, PTC-PALO and truncated PTC-PALO, respectively. Moreover, in test [5], the “% activity” value was “PAPU inhibited similarly the activities of PTC with putrescine and with ornithine”.
